Experimental data as given in the supplement of paper PMC10307832.

Tests used:
Assay in all cases: relative viability (nuclei count vs DMSO), 5 days (fraction); higher = more cells survive
PAC-1 + Decitabine = compound: C=CCc1cccc(/C=N/NC(=O)CN2CCN(Cc3ccccc3)CC2)c1O [PAC-1] + Nc1ncn([C@H]2C[C@H](O)[C@@H](CO)O2)c(=O)n1 [Decitabine] (partner 2 µM)
How it was run: (§1)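 Lung cancer cell lines were pin-tool dosed in 1536-well plates on the day after seeding, with either a lone drug or a fixed anchor-drug dose plus five library-drug doses (not always all listed) in √10 steps. Nuclei were counted on 4× images after 5 days. Relative viability is the ratio of treated-well to vehicle-well nuclei counts, with each value a median of duplicate plates.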

BMX-IN-1 + Phenformin = compound: C=CC(=O)Nc1cc(-n2c(=O)ccc3cnc4ccc(-c5ccc(NS(C)(=O)=O)cc5)cc4c32)ccc1C [BMX-IN-1] + N=C(N)NC(=N)NCCc1ccccc1 [Phenformin] (partner 250 µM)
How it was run: as §1

PAC-1 + Bortezomib = compound: C=CCc1cccc(/C=N/NC(=O)CN2CCN(Cc3ccccc3)CC2)c1O [PAC-1] + CC(C)C[C@H](NC(=O)[C@H](Cc1ccccc1)NC(=O)c1cnccn1)B(O)O [Bortezomib] (partner 0.002 µM)
How it was run: as §1

BMX-IN-1 + Decitabine = compound: C=CC(=O)Nc1cc(-n2c(=O)ccc3cnc4ccc(-c5ccc(NS(C)(=O)=O)cc5)cc4c32)ccc1C [BMX-IN-1] + Nc1ncn([C@H]2C[C@H](O)[C@@H](CO)O2)c(=O)n1 [Decitabine] (partner 2 µM)
How it was run: as §1

BMX-IN-1 + Dasatinib = compound: C=CC(=O)Nc1cc(-n2c(=O)ccc3cnc4ccc(-c5ccc(NS(C)(=O)=O)cc5)cc4c32)ccc1C [BMX-IN-1] + Cc1nc(Nc2ncc(C(=O)Nc3c(C)cccc3Cl)s2)cc(N2CCN(CCO)CC2)n1 [Dasatinib] (partner 0.075 µM)
How it was run: as §1

Cell Line	relative viability (PAC-1 + Decitabine; first compound 0.02 µM)	relative viability (PAC-1 + Decitabine; first compound 0.06325 µM)	relative viability (PAC-1 + Decitabine; first compound 0.2 µM)	relative viability (PAC-1 + Decitabine; first compound 2 µM)	relative viability (BMX-IN-1 + Phenformin; first compound 0.02 µM)	relative viability (BMX-IN-1 + Phenformin; first compound 0.2 µM)	relative viability (BMX-IN-1 + Phenformin; first compound 0.6325 µM)	relative viability (BMX-IN-1 + Phenformin; first compound 2 µM)	relative viability (PAC-1 + Bortezomib; first compound 0.02 µM)	relative viability (PAC-1 + Bortezomib; first compound 0.06325 µM)	relative viability (PAC-1 + Bortezomib; first compound 0.2 µM)	relative viability (PAC-1 + Bortezomib; first compound 2 µM)	relative viability (BMX-IN-1 + Decitabine; first compound 0.02 µM)	relative viability (BMX-IN-1 + Decitabine; first compound 0.2 µM)	relative viability (BMX-IN-1 + Decitabine; first compound 0.6325 µM)	relative viability (BMX-IN-1 + Decitabine; first compound 2 µM)	relative viability (BMX-IN-1 + Dasatinib; first compound 0.02 µM)	relative viability (BMX-IN-1 + Dasatinib; first compound 0.2 µM)	relative viability (BMX-IN-1 + Dasatinib; first compound 0.6325 µM)	relative viability (BMX-IN-1 + Dasatinib; first compound 2 µM)
201T	0.854	0.85	0.836	0.861	0.519	0.464	0.483	0.458	1.08	1.15	1.13	1.05	0.819	0.847	0.864	0.918	0.659	0.681	0.687	0.567
A549	0.342	0.267	0.138	0.253	0.164	1.01	0.17	0.188	–	–	–	–	0.289	0.115	0.284	0.293	–	–	–	–
A-427	0.602	0.56	0.532	0.542	0.192	0.324	0.348	0.37	1.05	1.01	0.963	0.958	0.544	0.554	0.559	0.551	0.731	1.01	0.782	0.664
ABC-1	0.809	1.06	1.05	1.16	0.227	0.232	0.243	0.229	0.336	0.371	0.258	0.319	1.22	1.31	1.15	1.16	0.465	0.545	0.598	0.601
BEN	0.644	0.72	0.613	0.642	0.264	0.259	0.273	0.254	0.742	0.77	0.797	0.725	0.7	0.755	0.792	0.674	0.308	0.34	0.241	0.295
CAL-12T	–	–	–	–	0.59	0.544	0.579	0.54	0.95	1.09	1.1	0.925	–	–	–	–	0.353	0.444	0.528	0.366
COR-L23	0.487	0.428	–	0.418	0.499	0.553	0.46	0.48	1.1	0.93	0.913	0.966	0.467	0.45	0.484	0.438	0.523	0.544	0.594	0.528
COR-L 105	0.63	0.71	0.707	0.696	0.486	0.458	0.49	0.574	0.71	0.695	0.757	0.792	0.563	0.671	0.654	0.672	0.324	0.297	0.342	0.305
Calu-6	–	–	–	–	–	–	–	–	1.07	1.09	1	1.1	–	–	–	–	–	–	–	–
ChaGo-K-1	0.522	0.506	0.458	0.54	0.499	0.517	0.541	0.5	0.941	1.1	1.16	0.88	0.512	0.549	0.551	0.519	0.63	0.598	0.633	0.561
EBC-1	–	–	–	–	–	–	–	–	0.513	0.544	0.633	0.53	–	–	–	–	–	–	–	–
EKVX	0.216	0.315	0.378	0.319	0.21	0.245	0.247	0.211	1.02	1.04	1.03	0.991	0.333	0.281	0.617	0.381	0.532	0.474	0.484	0.59
EMC-BAC-2	0.924	0.989	0.895	1.01	0.553	0.573	0.56	0.515	1.09	1.04	1.11	1.13	0.95	0.993	1.1	1.03	0.348	0.345	0.326	0.353
EPLC-272H	0.369	0.39	0.342	0.324	0.263	0.339	0.345	0.281	–	0.895	1.02	1	0.29	0.397	0.407	0.355	0.354	0.266	0.393	0.314
H3255	0.593	0.849	0.534	0.63	0.327	0.357	0.782	0.374	0.876	0.778	0.861	0.729	0.784	0.631	0.812	0.694	0.363	0.394	0.397	0.33
HARA	0.573	0.688	0.507	0.487	0.413	0.619	0.489	0.409	1.08	1.12	0.853	1.11	0.752	0.575	0.664	0.704	0.258	0.305	0.342	0.244
